Among the test systems are SNB-19 CNS; OVCAR-5 ovarian; TK-10 renal; UO-31 renal; OVCAR-3 ovarian; SK-OV-3 ovarian; A549 NSCLC; SF-539 CNS; MOLT-4 leukemia; CCRF-CEM leukemia; ACHN renal; OVCAR-8 ovarian; U251 CNS; A498 renal.
What all share (assay): NCI tumour cell line growth inhibition, 48 h

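Dose response: 5 concentrations. Exposure: 48 h. Format: 96-well plates. Endpoint: linear interpolation; highest concentration if not reached. The concentration for full growth arrest is given as TGI.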 Where only a bound is given, the exact number is not on record here.

Consider `O=C1/C(=C/c2cccc(Br)c2)CCc2ccccc21`, for which the TGI amounted to 27.9 µM in the experiment on SNB-19 CNS; 28.3 µM with OVCAR-5 ovarian; 31 µM in the experiment with TK-10 renal; 26.7 µM in the experiment with UO-31 renal; 28.6 µM in the experiment with OVCAR-3 ovarian; 47.2 µM in the experiment with SK-OV-3 ovarian. Further, the TGI in the experiment on A549 NSCLC came out at 34.6 µM; in the experiment with SF-539 CNS, 31.4 µM; in the experiment on MOLT-4 leukemia, 42.1 µM; in the experiment with CCRF-CEM leukemia, 13.4 µM; with ACHN renal, 27.7 µM; with OVCAR-8 ovarian, 36.1 µM. Moreover, the TGI in the experiment with U251 CNS was 28 µM.

Consider `O=c1[nH]c2cc([N+](=O)[O-])ccc2nc1/C(=N/Nc1ccccc1)C(O)c1ccccc1Cl` (stereo unspecified), for which the TGI in the experiment on SNB-19 CNS, in the experiment with OVCAR-5 ovarian, with TK-10 renal, in the experiment with UO-31 renal, in the experiment on OVCAR-3 ovarian and with SK-OV-3 ovarian was above 100 µM each time. In addition, the TGI with A549 NSCLC, with SF-539 CNS, with MOLT-4 leukemia, in the experiment on CCRF-CEM leukemia, in the experiment on ACHN renal and in the experiment on OVCAR-8 ovarian was above 100 µM each time. The TGI in the experiment on U251 CNS is above 100 µM.

Take `CCc1n[nH]c(=O)n1/N=C/c1c(O)ccc2ccccc12`: the TGI in the experiment on SNB-19 CNS, in the experiment on OVCAR-5 ovarian, in the experiment on TK-10 renal, in the experiment with UO-31 renal, in the experiment with OVCAR-3 ovarian and in the experiment with SK-OV-3 ovarian was above 100 µM in each case. Besides, the TGI in the experiment on A549 NSCLC, in the experiment on SF-539 CNS, with MOLT-4 leukemia, in the experiment with CCRF-CEM leukemia, in the experiment on ACHN renal and in the experiment on OVCAR-8 ovarian was above 100 µM in each case. In addition, the TGI with U251 CNS is above 100 µM.

Turning to `O=C1/C(=C/c2cccc(F)c2)CCCc2ccccc21`, the TGI in the experiment on SNB-19 CNS was determined as 29.4 µM; with OVCAR-5 ovarian, 28.3 µM; in the experiment on TK-10 renal it was 29.1 µM; in the experiment with UO-31 renal, 29.9 µM; in the experiment with OVCAR-3 ovarian, 28.6 µM; with SK-OV-3 ovarian, 68.2 µM. The TGI with A549 NSCLC is 38.2 µM; with SF-539 CNS it was 31.2 µM; in the experiment with MOLT-4 leukemia, 43.6 µM; in the experiment with CCRF-CEM leukemia it was 34 µM; in the experiment with ACHN renal, 33.1 µM; with OVCAR-8 ovarian, 29.3 µM. The TGI in the experiment with U251 CNS turned out to be 29.7 µM.

Turning to `CC(=O)OC1COC(n2c(O)c(N=NC(N)=S)c3cc(Br)ccc32)C(OC(C)=O)C1OC(C)=O` (stereo unspecified), the TGI in the experiment on SNB-19 CNS, in the experiment with OVCAR-5 ovarian, with TK-10 renal, in the experiment on OVCAR-3 ovarian, in the experiment with SK-OV-3 ovarian and with A549 NSCLC was above 100 µM in each case. Further, the TGI in the experiment on SF-539 CNS, in the experiment on MOLT-4 leukemia, with CCRF-CEM leukemia, in the experiment on ACHN renal, with OVCAR-8 ovarian and in the experiment on U251 CNS was above 100 µM in each case.

Take `C=CCNC(=O)NC(=O)CSC1=NNC2(C(=O)N1)c1ccccc1-c1ccccc12`: the TGI in the experiment on SNB-19 CNS, in the experiment with OVCAR-5 ovarian, with TK-10 renal, with UO-31 renal, with SK-OV-3 ovarian and with A549 NSCLC was above 10 µM in each case. The TGI in the experiment with SF-539 CNS, with MOLT-4 leukemia, with CCRF-CEM leukemia, in the experiment with ACHN renal and in the experiment on OVCAR-8 ovarian was above 10 µM throughout.

Consider `NC1=C(NC(=O)Cc2ccc(F)cc2)C(=O)c2ccccc2C1=O`, for which the TGI in the experiment on SNB-19 CNS is 59 µM; with OVCAR-5 ovarian, above 100 µM; in the experiment with TK-10 renal, 59 µM; in the experiment on UO-31 renal, above 100 µM; in the experiment with OVCAR-3 ovarian, above 100 µM; in the experiment on SK-OV-3 ovarian it was 56.1 µM. Also, the TGI was above 100 µM in the experiment on A549 NSCLC; above 100 µM in the experiment on SF-539 CNS; above 100 µM with MOLT-4 leukemia; above 100 µM with CCRF-CEM leukemia; above 100 µM with ACHN renal; 98.5 µM in the experiment on OVCAR-8 ovarian. Moreover, the TGI in the experiment on U251 CNS amounted to 46.8 µM.

For the molecule `C=CCNC1=C2C[C@@H](C)C[C@@H](OC)[C@H](OC(=O)CCN)[C@H](C)/C=C(\C)[C@@H](OC(N)=O)[C@H](OC)/C=C\C=C(/C)C(=O)NC(=CC1=O)C2=O`, the TGI is 20.9 µM with SNB-19 CNS; 17.6 µM in the experiment with A498 renal; 23.3 µM in the experiment on OVCAR-5 ovarian; 10.5 µM with TK-10 renal; 24.2 µM in the experiment on UO-31 renal; 6.56 µM in the experiment with OVCAR-3 ovarian. Further, the TGI in the experiment on SK-OV-3 ovarian worked out at 11 µM; with A549 NSCLC, 18.5 µM; with MOLT-4 leukemia, 12.7 µM; with ACHN renal it was 25.2 µM; in the experiment with OVCAR-8 ovarian, 18.4 µM; with U251 CNS, 18.8 µM.

Turning to `O=c1oc2ccc3ccccc3c2cc1-c1cn2ccccc2n1`, the TGI in the experiment on TK-10 renal, in the experiment with UO-31 renal, in the experiment with OVCAR-3 ovarian, in the experiment with SK-OV-3 ovarian, with A549 NSCLC and in the experiment on SF-539 CNS was above 100 µM in each case. Besides, the TGI in the experiment with MOLT-4 leukemia is above 100 µM; in the experiment on CCRF-CEM leukemia it was above 100 µM; with ACHN renal it was 94.2 µM; in the experiment on OVCAR-8 ovarian, above 100 µM; in the experiment with U251 CNS it was above 100 µM.

For `O=C1NC2ON=C(c3ccccc3)C2C2ON=C(c3ccccc3)N12` (stereo unspecified), the TGI in the experiment with SNB-19 CNS, in the experiment on OVCAR-5 ovarian, in the experiment on TK-10 renal, in the experiment with UO-31 renal, in the experiment on OVCAR-3 ovarian and in the experiment on SK-OV-3 ovarian was above 100 µM throughout. Moreover, the TGI in the experiment with A549 NSCLC, in the experiment with SF-539 CNS, in the experiment with ACHN renal and in the experiment with OVCAR-8 ovarian was above 100 µM throughout.

On to `O=C(CSc1nnc(-c2ccc(N=Cc3ccc(Cl)cc3)cc2)o1)Nc1ccccc1[N+](=O)[O-]`, for which the TGI with SNB-19 CNS, in the experiment with TK-10 renal, in the experiment on UO-31 renal, in the experiment on SK-OV-3 ovarian, in the experiment on A549 NSCLC and in the experiment on MOLT-4 leukemia was above 100 µM throughout. The TGI in the experiment on CCRF-CEM leukemia, in the experiment with ACHN renal, with OVCAR-8 ovarian and with U251 CNS was above 100 µM each time.

(Values after PubChem BioAssay (NCI).)
